Measured values as given in patent EP0645451A1, “Heparin binding site structural analogues of fibroblast growth factors” (AMERICAN CYANAMID COMPANY, priority 1993, dated 1995).

Key:
Experiment in all cases: Fluorescence quenching titration, thermodynamic dissociation constant (KD)
[1] = target: FGF-1 (acidic FGF) (Homo sapiens, UniProt P05230); conditions: tryptophan fluorescence quenching, 10 mM Tris-HCl, pH 7.4, 2 mM dithiothreitol, fitted with n binding sites per ligand, read-out: KD BCDS
Experimental: (§1) FGF-2 contains a single tryptophan residue at position 123. […] Therefore, the fluorescence properties of FGF-2 and FGF-2 mutants in the presence and absence of heparin and a heparin mimic, β-cyclodextran tetradecasulfate (BCDS) are evaluated in this example.
(§2) Fluorescence titration measurements are conducted in a Perkin-Elmer LS-5 fluorospectrometer using excitation and emission wavelengths of 290 nm and 350 nm, respectively. Two milliliters of FGF solution in 10 mM Tris-HCl, pH 7.4, containing 2 mM of dithiothreitol are placed in a cuvette. […] Concentrations of FGF-2 and gln^128,138FGF-2 are 370 nM and 280 nM, respectively. […] An equivalent tryptophan residue, Trp122, exists in acidic FGF (FGF-1), for which similar fluorescence quenching is obtained.
The thermodynamic dissociation constant (KD) is obtained from plots of fluorescence intensity versus ligand concentration. The fluorescence intensity data are fitted by non-linear regression by using equation 1 below, where FO is observed fluorescence intensity, FI is initial intensity, Δ F is the difference between final and the initial fluorescence intensities, Ct is the total FGF protein concentration, KD is the thermodynamic dissociation constant, and Lt is the total heparin concentration. […] However, in the fluorescence titration experiments the titration curves shown in Figure 1 cannot be fitted directly using equation 1. […]

[2] = target: T1, human FGF-2 mutant gln^128,138FGF-2 (lysine-128 and lysine-138 replaced by glutamine) (Homo sapiens, UniProt P09038, A136E/K261Q/K271Q/S138E); assay type: binding; conditions: tryptophan fluorescence quenching, 10 mM Tris-HCl, pH 7.4, 2 mM dithiothreitol, read-out: KD BCDS
T1 construct: a synthetic gene encoding the 155 amino acid form of human FGF-2; made in house; host or cells: E. coli BL21 plys S
T1 sequence (P09038 134-288 A136E/S138E/K261Q/K271Q): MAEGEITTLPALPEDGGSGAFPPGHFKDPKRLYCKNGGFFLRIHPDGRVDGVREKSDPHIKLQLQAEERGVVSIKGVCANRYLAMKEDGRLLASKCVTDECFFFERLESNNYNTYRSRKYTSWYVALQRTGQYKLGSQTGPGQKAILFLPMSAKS
Experimental: as §1, §2
(§3) The thermodynamic dissociation constant (KD) is obtained from plots of fluorescence intensity versus ligand concentration. The fluorescence intensity data are fitted by non-linear regression by using equation 1 below, where FO is observed fluorescence intensity, FI is initial intensity, Δ F is the difference between final and the initial fluorescence intensities, Ct is the total FGF protein concentration, KD is the thermodynamic dissociation constant, and Lt is the total heparin concentration. It is assumed in equation 1 that the stoichiometry of FGF and heparin in the complex is 1:1. A graphic software Kaleidagraph is used for handling data. [formula] However, in the fluorescence titration experiments the titration curves shown in Figure 1 cannot be fitted directly using equation 1. […] Since the heparin preparation used here is composed of an average of 20 sulfated monosaccharide units per chain, it is likely that more than one FGF molecule is bound per oligosaccharide chain. […] Moreover, it is reasonable to assume that, in the absence of any data to indicate otherwise, the binding sites on heparin are independent and the binding affinities are similar. […] Under this assumption, the effective concentration of the ligand needs to be adjusted by the multiplication of the actual concentrations by the number of possible binding sites. If n is the average number of FGF molecules bound per oligosaccharide, then equation 1 can be modified to give [formula] in which the effective concentration of the ligand is increased by n times.
(§4) Equation 2 is used to fit the data shown in Figure 1 and the values of the two variables, KD and n, are determined by non-linear regression of at least three titration curves for each molecule. An average of four (n = 4) FGF-2 molecules interacting with heparin is obtained. Four binding sites on each heparin molecule are assumed for mutant gln^128,138FGF-2. Since the molecular weight of heparin used in the experiments is about 5000, which has an average of 20 monosaccharide units, about 4 to 6 monosaccharide units may interact with each FGF molecule. Two to four FGF molecules can bind to one BCDS (which has a calculated molecular weight of 2226). This estimate is in good agreement with that reported by Mach, et al. (Biochemistry 32: 5480-5489 (1993)) of a stoichiometry of 1:4-6 determined by a variety of different approaches including light scattering and analytical ultracentrifugation analyses.
(§5) Table I presents the thermodynamic dissociation constants obtained from fluorescence quenching experiments for the wild-type FGF and the mutants using heparin or BCDS.

[3] = target: T2, human FGF-2 mutant gln^129,134FGF-2 (arginine-129 and lysine-134 replaced by glutamine) (Homo sapiens, UniProt P09038, A136E/K267Q/R262Q/S138E); assay type: binding; conditions: tryptophan fluorescence quenching, 10 mM Tris-HCl, pH 7.4, 2 mM dithiothreitol, read-out: KD BCDS
T2 construct: a synthetic gene encoding the 155 amino acid form of human FGF-2; made in house; host or cells: E. coli BL21 plys S
T2 sequence (P09038 134-288 A136E/S138E/R262Q/K267Q): as the sequence (P09038 134-288 A136E/S138E/K261Q/K271Q) above, with Q128K, R129Q, K134Q, Q138K counted along it
Experimental: as §1, §2, §3, §4, §5

[4] = target: T3, human FGF-2 mutant gln¹²⁸FGF-2 (lysine-128 replaced by glutamine) (Homo sapiens, UniProt P09038, A136E/K261Q/S138E); assay type: binding; conditions: tryptophan fluorescence quenching, 10 mM Tris-HCl, pH 7.4, 2 mM dithiothreitol, read-out: KD BCDS
T3 construct: a synthetic gene encoding the 155 amino acid form of human FGF-2; made in house; host or cells: E. coli BL21 plys S
T3 sequence (P09038 134-288 A136E/S138E/K261Q): as the sequence (P09038 134-288 A136E/S138E/K261Q/K271Q) above, with Q138K counted along it
Experimental: as §1, §2, §3, §4, §5

[5] = target: T4, human FGF-2 mutant gln¹²⁹FGF-2 (arginine-129 replaced by glutamine) (Homo sapiens, UniProt P09038, A136E/R262Q/S138E); assay type: binding; conditions: tryptophan fluorescence quenching, 10 mM Tris-HCl, pH 7.4, 2 mM dithiothreitol, read-out: KD BCDS
T4 construct: a synthetic gene encoding the 155 amino acid form of human FGF-2; made in house; host or cells: E. coli BL21 plys S
T4 sequence (P09038 134-288 A136E/S138E/R262Q): as the sequence (P09038 134-288 A136E/S138E/K261Q/K271Q) above, with Q128K, R129Q, Q138K counted along it
Experimental: as §1, §2, §3, §4, §5

[6] = target: T5, human FGF-2 mutant gln¹³⁴FGF-2 (lysine-134 replaced by glutamine) (Homo sapiens, UniProt P09038, A136E/K267Q/S138E); assay type: binding; conditions: tryptophan fluorescence quenching, 10 mM Tris-HCl, pH 7.4, 2 mM dithiothreitol, read-out: KD BCDS
T5 construct: a synthetic gene encoding the 155 amino acid form of human FGF-2; made in house; host or cells: E. coli BL21 plys S
T5 sequence (P09038 134-288 A136E/S138E/K267Q): as the sequence (P09038 134-288 A136E/S138E/K261Q/K271Q) above, with Q128K, K134Q, Q138K counted along it
Experimental: as §1, §2, §3, §4, §5

[7] = target: T6, human FGF-2 mutant gln¹³⁸FGF-2 (lysine-138 replaced by glutamine) (Homo sapiens, UniProt P09038, A136E/K271Q/S138E); assay type: binding; conditions: tryptophan fluorescence quenching, 10 mM Tris-HCl, pH 7.4, 2 mM dithiothreitol, read-out: KD BCDS
T6 construct: a synthetic gene encoding the 155 amino acid form of human FGF-2; made in house; host or cells: E. coli BL21 plys S
T6 sequence (P09038 134-288 A136E/S138E/K271Q): as the sequence (P09038 134-288 A136E/S138E/K261Q/K271Q) above, with Q128K counted along it
Experimental: as §1, §2, §3, §4, §5

[8] = target: T7, human FGF-2, wild-type (recombinant glu^3,5FGF-2) (Homo sapiens, UniProt P09038, A136E/S138E); assay type: binding; conditions: wild-type FGF-2; tryptophan fluorescence quenching, 10 mM Tris-HCl, pH 7.4, 2 mM dithiothreitol; read-out: KD BCDS
T7 construct: a synthetic gene encoding the 155 amino acid form of human FGF-2; made in house; host or cells: E. coli BL21 plys S (stated for the mutants; inferred for the wild type)
T7 sequence (P09038 134-288 A136E/S138E): as the sequence (P09038 134-288 A136E/S138E/K261Q/K271Q) above, with Q128K, Q138K counted along it
Experimental: as §1, §2, §3, §4, §5

Sequence of FGF-1 (acidic FGF) (P05230 whole entry, species assumed): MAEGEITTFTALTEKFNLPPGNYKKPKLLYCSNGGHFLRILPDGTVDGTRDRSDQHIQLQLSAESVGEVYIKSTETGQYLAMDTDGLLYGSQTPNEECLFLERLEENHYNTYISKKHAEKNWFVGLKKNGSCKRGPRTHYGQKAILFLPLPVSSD

Kd [1]: 4 ± 2 nM | Kd [2]: 2700 ± 600 nM | Kd [3]: 130 ± 27 nM | Kd [4]: 178 ± 44 nM | Kd [5]: 3 ± 1 nM | Kd [6]: 12 ± 0.1 nM | Kd [7]: 228 ± 23 nM | Kd [8]: 14 ± 7 nM
Substance: β-cyclodextran tetradecasulfate [BCDS]
